Laboratory results from patent US20110183978A1, “Phenylpyri(mi)dinylazoles” (Bayer CropScience AG, priority 2009, published 2011).
Read-outs that look alike come from different tables or passages of the source.

Tests used:
Pyrenophora teres = test: Example E: in vivo test on Pyrenophora teres (barley net blotch disease); conditions: barley plants sprayed 24 hours before inoculation, scored after 12 days; for pest or weed control at 500 ppm: Pyrenophora teres, 288 h, read-out: % Wirkungsgrad
Method: In Vivo Test on Pyrenophora Teres (Barley Net Blotch Disease) An aqueous suspension of the active substance was prepared by homogenization of a mixture of acetone/Tween/dimethyl sulphoxide and subsequent dilution with water to the desired concentration. Barley plants (variety: Plaisant) are sown in cultivation dishes on a peat-pozzolanic earth substrate (50/50) at 12° C. and sprayed at the first-leaf stage (10 cm size) with the aqueous suspension described above. As a control, plants are sprayed with an aqueous solution with no active substance. After 24 hours the plants are inoculated by spraying with an aqueous suspension of Pyrenophora teres spores (12,000 spores per ml). The spores are derived from a 12 day-old culture. […] After 12 days they are scored in comparison with the control plants.

Peronospora parasitica = test: Example A: in vivo test on Peronospora parasitica (downy mildew on white cabbage); conditions: cabbage plants sprayed 24 hours before inoculation, scored after 5 days; for pest or weed control at 500 ppm: Hyaloperonospora parasitica, 120 h, read-out: % Wirkungsgrad
Method: In Vivo Test on Peronospora Parasitica (Downy Mildew on White Cabbage) An aqueous suspension of the active substance was prepared by homogenization of a mixture of acetone/Tween (dispersant)/dimethyl sulphoxide (DMSO) and subsequent dilution with water to the desired concentration. Cabbage plants (variety: Eminence) are sown in cultivation dishes on a peat-pozzolanic earth substrate (50/50) at 18-20° C. and sprayed at the cotyledon stage with the aqueous suspension described above. As a control, plants are sprayed with an aqueous solution with no active substance. After 24 hours, the plants are inoculated by spraying with an aqueous suspension of Peronospora parasitica spores (50,000 spores per ml). The spores are derived from infected plants. The inoculated cabbage plants are incubated for 5 days at ca. 20° C. in a moist atmosphere. After 5 days, they are scored in comparison with the control plants.

Fusarium proliferatum = test: Example I: production of fumonisin FB1 by Fusarium proliferatum (microtitre plates); format: cell-based; conditions: for inhibition at 50 µM: 120 h
Sphaerotheca fuliginea [1] = test: Example D: in vivo test on Sphaerotheca fuliginea (powdery mildew on cucumber); conditions: Podosphaera fuliginea, 288 h, cucumber plants sprayed 24 hours before inoculation, scored after 12 days, read-out: % Wirkungsgrad
How it was run: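 Scoring took place 12 days after spore inoculation (100,000 spores/ml, at ca. 20/25° C., 60/70% RH) and was made against plants sprayed without active substance. Inoculation followed by 24 hours a spray of water-diluted acetone/Tween/DMSO compound suspension onto Z10 cotyledon-stage cucumbers.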

Rhizoctonia solani = test: Example W: in vivo test on Rhizoctonia solani (sheath blight in rice/protective); conditions: 96 h, rice, protective, 250 ppm active substance, assessed 4 days after inoculation, read-out: % Activity level
Method: Solvent: 28.5 parts by weight acetone Emulsifier: 1.5 parts by weight alkylaryl polyglycol ethers For the preparation of a suitable active substance preparation, 1 part by weight of active substance is mixed with the stated quantities of solvent and emulsifier and the concentrate is diluted to the desired concentration with water. For the testing for protective activity, young rice plants are sprayed with the active substance preparation at the stated application dosage. One day after the treatment, the plants are inoculated with hyphae of Rhizoctonia solani. […] 4 days after the inoculation, the assessment takes place.

Pyricularia oryzae = test: whole plant or invertebrate; format: in vivo; conditions: 120 h, read-out: % Activity level
Alternaria solani = test: Example M: in vivo test on Alternaria solani (leaf blotch disease/tomato/protective); conditions: 168 h, tomato, protective, 500 ppm active substance, assessed 7 days after inoculation, read-out: % Wirkungsgrad (activity level)
How it was run: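 Alternaria solani infection on tomato scored 7 days post-inoculation. Before inoculation, young plants received a protective spray at the stated application dose; formulation was compound mixed with N,N-dimethylformamide and emulsifier, water-diluted.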

Septoria tritici = test: Example R: in vivo test on Septoria tritici (leaf blotch in wheat/protective); conditions: Zymoseptoria tritici, 504 h, wheat, protective, 1000 ppm active substance, assessed 21 days after inoculation, read-out: % Wirkungsgrad (activity level)
Method: Solvent: 49 parts by weight N,N-dimethylacetamide Emulsifier: 1 part by weight alkylaryl polyglycol ethers For the preparation of a suitable active substance preparation, 1 part by weight of active substance is mixed with the stated quantities of solvent and emulsifier and the concentrate is diluted to the desired concentration with water. For the testing for protective activity, young plants are sprayed with the active substance preparation at the stated application dosage. After drying of the spray coating, the plants are sprayed with a spore suspension of Septoria tritici. […] 21 days after the inoculation, the assessment takes place.

Venturia inaequalis = test: Example O: in vivo test on Venturia inaequalis (apple scab/protective); conditions: 240 h, protective, assessment 10 days after inoculation, read-out: % Wirkungsgrad
How it was run: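 Young plants received a preventive spray of compound formulated as an emulsifier-containing aqueous dilution at the given application rate, then were inoculated with apple scab fungus. Disease was scored 10 days post-inoculation.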

Botrytis cinerea = test: Example P: in vivo test on Botrytis cinerea (gray mould on bean/protective); conditions: 48 h, bean, protective, 250 ppm active substance, assessed 2 days after inoculation, read-out: % Wirkungsgrad (activity level)
How it was run: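 Infection blotch size on leaves was scored 2 days after placing 2 Botrytis-colonised agar pieces per leaf. Inoculation followed drying of a protective spray applied to young plants at the stated dosage. Spray was prepared by diluting compound with solvent and alkylaryl polyglycol ether emulsifier in water.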

Leptosphaeria nodorum = test: Example Q: in vivo test on Leptosphaeria nodorum (glume blotch in wheat/protective); conditions: Parastagonospora nodorum, 192 h, wheat, protective, assessment 8 days after inoculation, read-out: % Wirkungsgrad
Method: (§1) Solvent: 49 parts by weight N,N-dimethylacetamide Emulsifier: 1 part by weight alkylaryl polyglycol ethers For the preparation of a suitable active substance preparation, 1 part by weight of active substance is mixed with the stated quantities of solvent and emulsifier and the concentrate is diluted to the desired concentration with water. For the testing for protective activity, young plants are sprayed with the active substance preparation at the stated application dosage. After drying of the spray coating, the plants are sprayed with spores with a spore suspension of Leptosphaeria nodorum. […] 8 days after the inoculation, the assessment takes place.

Aspergillus parasiticus = test: microbe, parasite or virus in culture; format: cell-based; conditions: 168 h
Sphaerotheca fuliginea [2] = test: Example L: in vivo test on Sphaerotheca fuliginea (powdery mildew on cucumber/protective); conditions: Podosphaera fuliginea, 168 h, cucumber, protective, assessment 7 days after inoculation, read-out: % Wirkungsgrad
How it was run: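 Young cucumber plants sprayed at stated dosage with compound in DMF/alkylaryl polyglycol ether emulsifier diluted in water; inoculated with S. fuliginea spores one day later. Kept in greenhouse at 70% relative humidity, 23° C; protective activity assessed 7 days after inoculation.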

[3] = system: Fusarium nivale (var. majus); test: whole plant or invertebrate; format: in vivo; conditions: Microdochium nivale, in Triticum aestivum, 120 h, read-out: % Wirkungsgrad (activity level)
Rhynchosporium secalis = test: Example S: in vivo test on Rhynchosporium secalis (leaf scald in barley/protective); conditions: 336 h, barley, protective, 1000 ppm active substance, assessed 14 days after inoculation, read-out: % Wirkungsgrad (activity level)
Method: as §1, with “Rhynchosporium secalis.” for “Leptosphaeria nodorum.”, “14” for “8”

Fusarium graminearum [4] = test: microbe, parasite or virus in culture; format: cell-based
Fusarium graminearum [5] = test: whole plant or invertebrate; format: in vivo; conditions: in Hordeum vulgare, 120 h, read-out: % Wirkungsgrad (activity level)
Cochliobolus miyabeanus = test: Example X: in vivo test on Cochliobolus miyabeanus (brown spot disease, rice/protective); conditions: Bipolaris oryzae, 96 h, read-out: % Activity level
Plasmopara viticola = test: Example N: in vivo test on Plasmopara viticola (downy mildew, vine/protective); conditions: 144 h, vine, protective, assessment 6 days after inoculation, read-out: % Wirkungsgrad
How it was run: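 Assessment of downy mildew on vines took place 6 days post-inoculation, after 1 day of moist incubation. Before infection, the young plants received a protective spray of compound emulsified with alkylaryl polyglycol ethers and diluted with water to the stated application rate.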

[6] = LogPA (logP of the stated pure compound or, in a mixture, of the main isomer, 1-substituted 3-aryl-1H-pyrazole)
[7] = Fusarium proliferatum growth, OD 620, 5 days, read-out: % Inhibition des Pilzwachstums bei 50 μM
[8] = Fusarium proliferatum, 5 days at 20° C., HPLC-MS/MS, read-out: % Inhibition der FB1 produktion bei 50 μM
[9] = 72 h, read-out: % Inhibition des Pilzwachstums bei 50 μM
[10] = 168 h, read-out: % Inhibition der DON/AcDON produktion bei 50 μM

CC(C)=CCn1cc(-c2ccncc2)c(-c2c(F)cccc2F)n1 [Compound 7]
chromatographic logP (physchem; [6]): 1.69 | pest or weed control at 500 ppm (Pyrenophora teres): 73%

CCC(=O)Nc1cc(-c2cn(C3CCCCO3)nc2-c2ccc(F)cc2)ccn1 (stereo not drawn) [Compound 19]
chromatographic logP (physchem; [6]): 2.32 | pest or weed control at 500 ppm (Peronospora parasitica): 100% | pest or weed control at 500 ppm (Pyrenophora teres): 83% | inhibition at 50 µM (Fusarium proliferatum; [7]): 68% | inhibition at 50 µM (Fusarium proliferatum; [8]): 100%

CC(C)C(=O)Nc1cc(-c2cn(C3CCCCO3)nc2-c2ccc(F)cc2)ccn1 (stereo not drawn) [Compound 21]
% Wirkungsgrad (Peronospora parasitica; 500 ppm): 100% | % Wirkungsgrad (Pyrenophora teres; 500 ppm): 73% | % Inhibition der FB1 produktion bei 50 μM (Fusarium proliferatum; 5 days at 20° C., HPLC-MS/MS): 100% | % Inhibition des Pilzwachstums bei 50 μM (Fusarium proliferatum; Fusarium proliferatum growth, OD 620, 5 days): 55%

CC(C)Cn1ncc(-c2ccncc2)c1-c1ccc(F)cc1 [Compound 24]
pest or weed control at 500 ppm (Sphaerotheca fuliginea [1]): 88% | chromatographic logP (physchem; [6]): 1.59 | pest or weed control at 500 ppm (Pyrenophora teres): 92%

CC(C)=CCn1cc(-c2ccncc2)c(-c2ccc(F)cc2)n1 [Compound 30]
pest or weed control at 250 ppm (Rhizoctonia solani): 95% | pest or weed control at 250 ppm (Pyricularia oryzae): 80% | chromatographic logP (physchem; [6]): 2.11 | pest or weed control at 500 ppm (Alternaria solani): 90%

CC(C)Cn1cc(-c2ccnc(NC(=O)C(C)C)c2)c(-c2ccc(F)cc2)n1 [Compound 87]
pest or weed control at 1000 ppm (Septoria tritici): 100% | pest or weed control at 100 ppm (Venturia inaequalis): 95% | pest or weed control at 250 ppm (Botrytis cinerea): 100% | pest or weed control at 1000 ppm (Leptosphaeria nodorum): 88% | inhibition at 50 µM (Aspergillus parasiticus; 50 μM, 7 days at 20° C., read-out: Inhibition der Aflatoxin produktion bei 50 μM): 100% | inhibition at 50 µM (Aspergillus parasiticus; read-out: % Inhibition des Pilzwachstums bei 50 μM): 97% | chromatographic logP (physchem; [6]): 2.89 | pest or weed control at 500 ppm (Alternaria solani): 95% | pest or weed control at 500 ppm (Sphaerotheca fuliginea [2]): 100% | pest or weed control at 1000 ppm [3]: 92% | pest or weed control at 1000 ppm (Rhynchosporium secalis): 88% | inhibition at 50 µM (Fusarium graminearum [4]; [9]): 97% | inhibition at 50 µM (Fusarium graminearum [4]; [10]): 100% | pest or weed control at 1000 ppm (Fusarium graminearum [5]): 100% | inhibition at 50 µM (Fusarium proliferatum; [7]): 83% | inhibition at 50 µM (Fusarium proliferatum; [8]): 100%

CC(C)n1cc(-c2ccncc2)c(-c2ccc(F)cc2)n1 [Compound 89]
pest or weed control at 250 ppm (Rhizoctonia solani): 92% | pest or weed control at 250 ppm (Cochliobolus miyabeanus): 85% | pest or weed control at 1000 ppm (Septoria tritici): 100% | pest or weed control at 100 ppm (Plasmopara viticola): 73% | pest or weed control at 100 ppm (Venturia inaequalis): 100% | pest or weed control at 250 ppm (Botrytis cinerea): 100% | pest or weed control at 1000 ppm (Leptosphaeria nodorum): 83% | chromatographic logP (physchem; [6]): 1.16 | pest or weed control at 500 ppm (Alternaria solani): 89% | pest or weed control at 500 ppm (Sphaerotheca fuliginea [2]): 88% | pest or weed control at 1000 ppm [3]: 92% | pest or weed control at 1000 ppm (Fusarium graminearum [5]): 100%

N#Cc1ccccc1Cn1cc(-c2ccncc2)c(-c2ccc(F)cc2)n1 [Compound 136]
pest or weed control at 250 ppm (Rhizoctonia solani): 97% | pest or weed control at 250 ppm (Pyricularia oryzae): 80% | pest or weed control at 500 ppm (Sphaerotheca fuliginea [1]): 91% | chromatographic logP (physchem; [6]): 1.49 | pest or weed control at 500 ppm (Alternaria solani): 95% | pest or weed control at 500 ppm (Sphaerotheca fuliginea [2]): 73% | pest or weed control at 500 ppm (Peronospora parasitica): 94% | pest or weed control at 500 ppm (Pyrenophora teres): 71%

C=CCNc1nccc(-c2cn(CC(C)C)nc2-c2ccc(F)cc2)n1 [Compound 150]
pest or weed control at 500 ppm (Sphaerotheca fuliginea [1]): 96% | chromatographic logP (physchem; [6]): 2.46 | pest or weed control at 500 ppm (Alternaria solani): 95% | pest or weed control at 500 ppm (Sphaerotheca fuliginea [2]): 93% | pest or weed control at 500 ppm (Peronospora parasitica): 100% | inhibition at 50 µM (Fusarium graminearum [4]; [9]): 97% | inhibition at 50 µM (Fusarium graminearum [4]; [10]): 99% | pest or weed control at 500 ppm (Pyrenophora teres): 86%

Fc1ccc(-c2nn(CC(F)F)cc2-c2ccncc2)cc1 [Compound 169]
pest or weed control at 250 ppm (Rhizoctonia solani): 100% | pest or weed control at 1000 ppm (Septoria tritici): 100% | pest or weed control at 100 ppm (Plasmopara viticola): 96% | pest or weed control at 100 ppm (Venturia inaequalis): 99% | pest or weed control at 250 ppm (Botrytis cinerea): 100% | pest or weed control at 1000 ppm (Leptosphaeria nodorum): 100% | chromatographic logP (physchem; LogPA): 1 | pest or weed control at 500 ppm (Sphaerotheca fuliginea [2]): 89% | pest or weed control at 1000 ppm [3]: 71% | pest or weed control at 1000 ppm (Rhynchosporium secalis): 100% | inhibition at 50 µM (Fusarium graminearum [4]; [9]): 101% | inhibition at 50 µM (Fusarium graminearum [4]; [10]): 100% | pest or weed control at 1000 ppm (Fusarium graminearum [5]): 100%

O=C(Nc1cc(-c2cn(CC(F)F)nc2-c2ccc(F)cc2)ccn1)C1CC1 [Compound 217]
pest or weed control at 250 ppm (Rhizoctonia solani): 100% | pest or weed control at 250 ppm (Cochliobolus miyabeanus): 85% | pest or weed control at 250 ppm (Pyricularia oryzae): 85% | pest or weed control at 100 ppm (Venturia inaequalis): 98% | pest or weed control at 250 ppm (Botrytis cinerea): 95% | chromatographic logP (physchem; LogPA): 2.07 | pest or weed control at 500 ppm (Sphaerotheca fuliginea [2]): 100% | inhibition at 50 µM (Fusarium proliferatum; [7]): 97% | inhibition at 50 µM (Fusarium proliferatum; [8]): 100%
